Data set [1] deals with T1, HlyIIR (Bacillus thuringiensis, UniProt A0A1W6WQG6).
T1 construct: gene CAB88_17715; hlyIIR gene amplified from the Bt407 chromosome, GST-tagged (pGEX6P1), tag removed with Precission protease
The data set is described as follows: isothermal titration calorimetry (ITC200, […]°C, […] purified HlyIIR, N = […]). Type of data set: binding. For orientation: In ITC the heat of successive injections is recorded.

For data set [2], the system named is HlyIIR (Bacillus cereus Bt407). The data set is described as follows: ITC. Conditions: ITC200, 20 C, protein storage buffer (composition and pH not given), 28 uM HlyIIR in cell, 1.25 uM DNA injected (20 x 2 ul).

The text below walks through data of paper PMC3566180, “Glucose 6P Binds and Activates HlyIIR to Repress Bacillus cereus Haemolysin hlyII Gene Expression” (PLoS ONE, 2013).

T1 sequence (A0A1W6WQG6 entry or part of it): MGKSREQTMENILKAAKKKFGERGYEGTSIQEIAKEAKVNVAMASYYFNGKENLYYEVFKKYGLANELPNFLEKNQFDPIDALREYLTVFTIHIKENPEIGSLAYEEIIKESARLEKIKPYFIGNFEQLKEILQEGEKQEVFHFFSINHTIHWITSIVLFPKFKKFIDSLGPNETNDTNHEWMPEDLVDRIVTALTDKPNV

Turning to `O=P(O)(O)OC[C@H]1OC(O)[C@H](O)[C@@H](O)[C@@H]1O` (some centres unmarked) [glucose 6P], in data set [1], the Kd (commonly the constant that tells how readily two partners part at equilibrium) is about 10.8 µM.
The molecule hlyII promoter fragment (220 bp) came in with a Kd in data set [2] of 0.11 µM.
